The values that follow come from ChEMBL document CHEMBL2073920 (Eur J Pharmacol, 1998).

Series [1] concerns the target T1, ATP-dependent translocase ABCB1 (Homo sapiens, UniProt P08183). Description: TP_TRANSPORTER: inhibition of Rhodamine 123 transepithelial transport (basal to apical)(R123: 5 uM, Midazolam: 100 uM) in Caco-2 cells. It counts as functional, cell-based. The following applies: caco-2, 100 µM.
For series [2], the target named is T1, ATP-dependent translocase ABCB1. Put plainly: TP_TRANSPORTER: transepithelial transport (basal to apical) in Caco-2 cells. It counts as functional, cell-based.

T1 sequence (P08183 whole entry): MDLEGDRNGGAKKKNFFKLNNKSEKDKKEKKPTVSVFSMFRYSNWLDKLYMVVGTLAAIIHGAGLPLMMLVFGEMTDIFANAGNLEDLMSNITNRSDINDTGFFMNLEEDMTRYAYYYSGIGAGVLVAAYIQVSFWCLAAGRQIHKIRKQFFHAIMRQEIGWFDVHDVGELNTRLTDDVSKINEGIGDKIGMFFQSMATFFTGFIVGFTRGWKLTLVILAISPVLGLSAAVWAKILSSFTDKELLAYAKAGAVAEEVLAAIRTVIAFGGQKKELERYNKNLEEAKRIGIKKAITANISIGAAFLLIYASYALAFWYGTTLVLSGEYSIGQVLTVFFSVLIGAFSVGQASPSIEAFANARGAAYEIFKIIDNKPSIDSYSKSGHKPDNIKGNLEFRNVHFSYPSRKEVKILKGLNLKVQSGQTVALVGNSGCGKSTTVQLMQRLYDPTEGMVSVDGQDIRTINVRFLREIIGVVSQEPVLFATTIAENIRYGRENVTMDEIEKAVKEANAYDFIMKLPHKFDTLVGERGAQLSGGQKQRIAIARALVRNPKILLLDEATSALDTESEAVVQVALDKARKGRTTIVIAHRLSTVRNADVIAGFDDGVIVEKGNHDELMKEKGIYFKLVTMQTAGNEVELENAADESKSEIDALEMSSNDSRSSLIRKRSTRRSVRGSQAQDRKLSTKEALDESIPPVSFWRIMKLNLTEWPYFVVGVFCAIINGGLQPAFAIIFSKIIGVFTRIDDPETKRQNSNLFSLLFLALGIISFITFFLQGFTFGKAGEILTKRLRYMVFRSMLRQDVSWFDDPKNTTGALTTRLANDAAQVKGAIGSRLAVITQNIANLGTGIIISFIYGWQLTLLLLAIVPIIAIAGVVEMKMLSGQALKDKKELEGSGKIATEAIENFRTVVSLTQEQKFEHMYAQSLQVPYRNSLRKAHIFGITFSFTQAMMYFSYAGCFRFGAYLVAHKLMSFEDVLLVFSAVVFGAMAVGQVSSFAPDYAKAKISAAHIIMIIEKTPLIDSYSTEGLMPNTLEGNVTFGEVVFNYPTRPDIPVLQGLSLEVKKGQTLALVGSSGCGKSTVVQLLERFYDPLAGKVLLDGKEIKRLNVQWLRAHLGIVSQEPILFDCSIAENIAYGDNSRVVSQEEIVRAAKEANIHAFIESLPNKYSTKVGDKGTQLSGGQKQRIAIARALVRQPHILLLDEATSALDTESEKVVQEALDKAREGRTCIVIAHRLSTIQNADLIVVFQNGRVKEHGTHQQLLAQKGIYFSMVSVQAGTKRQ

As to `Cc1ncc2n1-c1ccc(Cl)cc1C(c1ccccc1F)=NC2` [MIDAZOLAM], the Activity result is “inhibitor [(at a rough estimate) 55 % of control]” in series [1] and “substrate [+]” in series [2].
